# Source: patent US9296691B2, “Inhibitors of p75 receptor and their uses” (Horacio Uri Saragovi, priority 2010, dated 2016)
# Columns and labels:
# TrkA-Fc = biological target: T1, TrkA-Fc (Homo sapiens, UniProt P04629); experiment: Competitive ELISA, TrkA-Fc binding to immobilized NGF (selectivity control)
# T1 construct: purchased R&D
# Protocol: (§1) The effect of compounds I-B and LM-24 on the binding between NGF and p75 was tested in competitive ELISA assays, where the antagonists prevent soluble p75 from binding to immobilized NGF. The selectivity of antagonism was evaluated by lack of effect upon NGF-TrkA or lack of effect between NGF and anti-NGF monoclonal antibody (mAb) NGF30 interactions (FIG. 1A).
# (§2) Competitive ELISAs were performed as described (Saragovi et al., 1998). The procedure immobilized 50 ng/well NGF, or pro-NGF (Alomone Labs, Israel) onto polystyrene 96-well microtest plates, with washing and blocking with binding buffer (BB; phosphate buffered saline containing 0.5% bovine serum albumin). The following primary reagents in BB were added: recombinant chimeric p75-Fc or recombinant chimeric TrkA-Fc (R&D), or anti-NGF mAb NGF30 (Saragovi et al., 1998); each at 50 nM. The competitors I-B and the other test compounds (or control LM-24) were added at the indicated concentrations, and the plates were incubated for 45 minutes. After washing 3× in BB, HRP-conjugated secondary reagents (Sigma) were added for 30 min (goat anti-human Fc for p75-Fc and for TrkA-Fc; and goat anti-rat Ab for NGF30 mAb), and then wells were washed 3× in BB and 1× in PBS. Peroxidase activity was determined colorimetrically using the substrate TMB One Solution (Promega). The reaction was stopped with 0.5 N H2SO4 and the plates were read at 450 nm (Benchmark Plus, Bio-Rad). Assays were repeated n>4 times, with replicates of 4 wells each assay. […] Wells with no NGF immobilized but with all other reagents added were treated as background (<15% of maximal signals) and standardized to 0% binding.
# B104 cells = experiment: Pro-NTF killing assay (MTT), B104 cells; format: cell-based; conditions: pro-NTF 50 nM + I-B 20 μM, 72 hours
# Protocol: The effect of I-B on the pro-apoptotic function of pro-NGF or pro-BDNF was tested in functional MTT assays measuring cell metabolism (FIG. 1B).
# Cells (5,000 cells/well) were cultured in 96-well plates (Falcon, Lincoln Park, N.J.) in normal culture media (RPMI1640, Hepes, Glutamine, 5% serum). Wells were supplemented with NGF, BDNF, pro-NGF, or pro-BDNF (Alomone Labs) (50 nM final), in the presence or absence of I-B (20 μM final). Wells containing all culture conditions but no cells were used as blanks. The growth/survival profile of the cells was quantified using MTT (Sigma) 72 hours after plating. Optical density readings of MTT were done in a Benchmark Plus microplate Spectrophotometer (BioRad) at 595 nm with blanks subtracted.
# p75-Fc = biological target: T2, p75-Fc (Homo sapiens, UniProt P08138); experiment: Competitive ELISA, p75-Fc binding to immobilized NGF
# T2 construct: purchased R&D
# T2 sequence (P08138 29-250 limits assumed): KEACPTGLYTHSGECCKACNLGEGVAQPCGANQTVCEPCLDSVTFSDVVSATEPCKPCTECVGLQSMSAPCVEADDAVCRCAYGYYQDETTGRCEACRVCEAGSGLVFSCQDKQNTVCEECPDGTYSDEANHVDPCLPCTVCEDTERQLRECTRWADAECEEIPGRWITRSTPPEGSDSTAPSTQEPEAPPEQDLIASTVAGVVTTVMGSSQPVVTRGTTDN
# Protocol: as §1
# The compound LM-24 has been reported by others (Massa et al., 2006). Binding studies were carried out with all the compounds using I-B as reference.
# as §2
# [1] = competitive ELISA, FIG. 1A, compound at 30 μM
# T1 sequence (P04629 33-423 limits assumed): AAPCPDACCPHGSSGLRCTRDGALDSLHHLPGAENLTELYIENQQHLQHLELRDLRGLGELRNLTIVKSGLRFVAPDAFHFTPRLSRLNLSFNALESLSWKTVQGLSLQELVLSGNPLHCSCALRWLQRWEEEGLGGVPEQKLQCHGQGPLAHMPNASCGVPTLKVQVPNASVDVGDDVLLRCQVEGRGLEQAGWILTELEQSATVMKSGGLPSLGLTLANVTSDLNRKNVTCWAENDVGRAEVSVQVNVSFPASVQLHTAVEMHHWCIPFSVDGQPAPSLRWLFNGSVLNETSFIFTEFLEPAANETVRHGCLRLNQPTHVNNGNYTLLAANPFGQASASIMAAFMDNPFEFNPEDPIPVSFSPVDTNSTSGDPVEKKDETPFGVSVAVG
smiles,measurement,setting,value
"CC(C)NC(=O)N(C(=O)Cn1cnc2c1c(=O)n(C)c(=O)n2C)C(C)C [I-B, 1,3-Diisopropyl-1-[2-(1,3-dimethyl-2,6-dioxo-1,2,3,6-tetrahydro-purin-7-yl)-acetyl]-urea]",TrkA-Fc binding AVERAGE,"TrkA-Fc; binding to immobilized NGF, no cpd = 100%, TrkA-Fc 50 nM, as described for FIG. 1A",107%
same,effect on binding of TrkA to NGF,TrkA-Fc; [1],did not interfere
same,cell viability (MTT) in presence of pro-NGF or pro-BDNF,B104 cells,prevented the loss of cell viability
same,remaining activity at 30 µM,"p75-Fc; 0.75 h, binding to immobilized NGF, no cpd = 100%, p75-Fc 50 nM, as described for FIG. 1A (compounds 30 μM), below 100% indicates inhibition",52%
same,effect on NGF-p75NTR interaction,p75-Fc; [1],antagonized NGF-p75NTR interactions selectively
